Assay type in all cases: cell-based
In one assay the test system is KB-31. The assay is described as follows: Antiproliferative activity, methylene blue staining, KB-31 line. The protocol: (§1) Subsequently, a two-fold dilution series of each compound (an mTOR inhibitor other than Compound A or a known chemotherapeutic agent) is made in separate tubes (starting at 8× the IC50 of each compound) either alone or in paired combinations, and the dilutions are added to the wells.
(§2) The cells are then re-incubated for 3 days. Methylene blue staining is performed on day 4 and the amount of bound dye (proportional to the number of surviving cells that bind the dye) determined. IC50s are subsequently determined using the Calcusyn program, which provides a measure of the interaction, namely the so-called non-exclusive combination index (CI), where: CI˜1=the interaction is nearly additive; 0.85-0.9=slight synergism; <0.85=synergy.

Assay [1] relates to A cell line, e.g. A549, KB-31 and HCT116 lines. Nature of the assay: Antiproliferative activity in combination with other agents (Calcusyn combination index). The following applies: e.g. with somastatin or a somastatin analogue, 3 days incubation, methylene blue staining. As for the experimental part:
as §1, §2

Another assay concerns A549 line. Nature of the assay: Antiproliferative activity, methylene blue staining, A549 line. As for the experimental part: as §1, §2
Another assay deals with HCT116. The assay is described as follows: Antiproliferative activity, methylene blue staining, HCT116 line. As for the experimental part:
as §1, §2

The test system of assay [2] is cells which are otherwise resistant to endocrine agent treatment. Nature of the assay: In vitro studies: restoring activity of endocrine agents in resistant cells. The text has this: Several studies have implicated aberrant activity of the Akt kinase as a significant mechanism by which breast cancer tumors are unresponsive to endocrine therapy.

For the molecule `CO[C@H]1C[C@@H]2CC[C@@H](C)[C@@](O)(O2)C(=O)C(=O)N2CCCC[C@H]2C(=O)O[C@H]([C@H](C)C[C@@H]2CC[C@@H](OCCO)[C@H](OC)C2)CC(=O)[C@H](C)/C=C(\C)[C@@H](O)[C@@H](OC)C(=O)[C@H](C)C[C@H](C)/C=C/C=C/C=C/1C` [Compound A, 40-O-(2-hydroxyethyl)-rapamycin], the IC50 entry in the assay with KB-31 is on record as “micromolar range”; in the assay on A549 line, “low nM range”; with HCT116, “micromolar range”. For the same molecule, the “antiproliferative activity in combination with another chemotherapeutic agent” value in assay [1] is recorded as “interesting antiproliferative activity”. For the same molecule, in assay [2], the “restoration of activity of endocrine agents (estrogen inhibitors and/or aromatase inhibitors)” value is recorded as “able to restore activity of endocrine agents”.

The values above are taken from US9006224B2, “Neuroendocrine tumor treatment” (Novartis AG, priority 2005, dated 2015).
